Source: PubChem BioAssay AID248 (DTP/NCI, 2004)
“And” between values parts separate entries of the source, which are not always exact repeats. Equal entries are not always repeated. Inconclusive results and toxic doses are left out.

Tested on: L1210 leukemia ip in BDF1 mice, survival T/C
Test: NCI In Vivo Anticancer Drug Screen. Data for tumor model L1210 Leukemia (intraperitoneal) in B6D2F1 (BDF1) mice
Conditions: endpoint: mean survival time, higher = longer survival
Method in brief: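 Tumor was transplanted into mice, which were then dosed with test compound or vehicle alone. Survival was recorded for each group, and the treated figure was expressed relative to the control figure.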

[1] = dose: 75.0 mg/kg/injection, schedule: Q01DX001 (ip), vehicle: other
[2] = dose: 150.0 mg/kg/injection, schedule: Q01DX001 (ip), vehicle: other
[3] = dose: 100.0 mg/kg/injection, schedule: Q01DX001 (ip), vehicle: saline

In the case of `CCn1cnc2c(=S)nc[nH]c21`, the T/C (dose: 4.62 mg/kg/injection, schedule: Q01DX Z (ip), vehicle: carboxymethylcellulose (CMC)) is reported as 98 % of control, the T/C (dose: 7.5 mg/kg/injection, schedule: Q01DX005 (ip), vehicle: other) is reported as 106 % of control and the T/C (dose: 7.5 mg/kg/injection, schedule: Q01DX009 (ip), vehicle: other) is reported as 102 % of control. For the same compound, the T/C (dose: 7.5 mg/kg/injection, schedule: Q01DX009 (sc), vehicle: other) was 124 % of control, the T/C (dose: 9.25 mg/kg/injection, schedule: Q01DX Z (ip), vehicle: carboxymethylcellulose (CMC)) was 108 % of control and the T/C (dose: 9.25 mg/kg/injection, schedule: Q01DX Z (oral), vehicle: carboxymethylcellulose (CMC)) was 110 % of control. For the same compound, the T/C (dose: 15.0 mg/kg/injection, schedule: Q01DX005 (ip), vehicle: other) was 102 % of control, the T/C (dose: 15.0 mg/kg/injection, schedule: Q01DX009 (ip), vehicle: other) was 107 % of control and the T/C (dose: 15.0 mg/kg/injection, schedule: Q01DX009 (oral), vehicle: other) was 115 % of control. For the same compound, the T/C (dose: 15.0 mg/kg/injection, schedule: Q01DX009 (sc), vehicle: other) was 103 % of control, the T/C (dose: 18.5 mg/kg/injection, schedule: Q01DX Z (ip), vehicle: carboxymethylcellulose (CMC)) was 108 % of control and the T/C (dose: 18.5 mg/kg/injection, schedule: Q01DX Z (oral), vehicle: carboxymethylcellulose (CMC)) was 110 % of control. The T/C (dose: 30.0 mg/kg/injection, schedule: Q01DX005 (ip), vehicle: other) was 116 % of control, the T/C (dose: 30.0 mg/kg/injection, schedule: Q01DX009 (ip), vehicle: other) was 117 % of control and the T/C (dose: 30.0 mg/kg/injection, schedule: Q01DX009 (oral), vehicle: other) was 115 % of control. The T/C (dose: 30.0 mg/kg/injection, schedule: Q01DX009 (sc), vehicle: other) was 119 % of control, the T/C (dose: 30.0 mg/kg/injection, schedule: Q## X024 (ip), vehicle: other) was 102 % of control and the T/C (dose: 31.3 mg/kg/injection, schedule: Q01DX009 (ip), vehicle: saline) was 100 % of control and 104 % of control. For the same compound, the T/C (dose: 31.3 mg/kg/injection, schedule: Q01DX010 (ip), vehicle: saline) was 92 % of control and 95 % of control, the T/C (dose: 37.0 mg/kg/injection, schedule: Q01DX Z (ip), vehicle: carboxymethylcellulose (CMC)) was 112 % of control and the T/C (dose: 37.0 mg/kg/injection, schedule: Q01DX Z (oral), vehicle: carboxymethylcellulose (CMC)) was 120 % of control. For the same compound, the T/C (dose: 37.5 mg/kg/injection, schedule: Q## X003 (ip), vehicle: other) was 100 % of control, the T/C (dose: 60.0 mg/kg/injection, schedule: Q01DX005 (ip), vehicle: other) was 123 % of control and the T/C (dose: 60.0 mg/kg/injection, schedule: Q## X008 (ip), vehicle: other) was 107 % of control. The T/C (dose: 60.0 mg/kg/injection, schedule: Q## X016 (ip), vehicle: other) was 109 % of control, the T/C (dose: 60.0 mg/kg/injection, schedule: Q## X024 (ip), vehicle: other) was 114 % of control and the T/C (dose: 62.5 mg/kg/injection, schedule: Q01DX009 (ip), vehicle: saline) was 106 % of control and 112 % of control. The T/C (dose: 62.5 mg/kg/injection, schedule: Q01DX010 (ip), vehicle: saline) was 107 % of control and 108 % of control, the T/C [1] was 102 % of control and the T/C (dose: 75.0 mg/kg/injection, schedule: Q01DX001 (sc), vehicle: other) was 113 % of control. For the same compound, the T/C (dose: 75.0 mg/kg/injection, schedule: Q## X002 (ip), vehicle: other) was 98 % of control, the T/C (dose: 75.0 mg/kg/injection, schedule: Q## X003 (ip), vehicle: other) was 100 % of control and the T/C (dose: 120.0 mg/kg/injection, schedule: Q01DX009 (oral), vehicle: other) was 151 % of control. The T/C (dose: 120.0 mg/kg/injection, schedule: Q## X008 (ip), vehicle: other) was 117 % of control, the T/C (dose: 125.0 mg/kg/injection, schedule: Q01DX010 (ip), vehicle: saline) was 122 % of control and the T/C [2] was 108 % of control. For the same compound, the T/C (dose: 150.0 mg/kg/injection, schedule: Q01DX001 (oral), vehicle: other) was 117 % of control, the T/C (dose: 150.0 mg/kg/injection, schedule: Q01DX001 (sc), vehicle: other) was 117 % of control and the T/C (dose: 150.0 mg/kg/injection, schedule: Q## X002 (ip), vehicle: other) was 101 % of control. The T/C (dose: 240.0 mg/kg/injection, schedule: Q## X016 (ip), vehicle: other) was 152 % of control, the T/C (dose: 240.0 mg/kg/injection, schedule: Q## X024 (ip), vehicle: other) was 165 % of control and the T/C (dose: 250.0 mg/kg/injection, schedule: Q01DX009 (ip), vehicle: saline) was 110 % of control and 124 % of control. The T/C (dose: 300.0 mg/kg/injection, schedule: Q01DX001 (oral), vehicle: other) was 119 % of control, the T/C (dose: 300.0 mg/kg/injection, schedule: Q## X003 (ip), vehicle: other) was 162 % of control and the T/C (dose: 480.0 mg/kg/injection, schedule: Q## X008 (ip), vehicle: other) was 157 % of control. For the same compound, the T/C (dose: 480.0 mg/kg/injection, schedule: Q## X016 (ip), vehicle: other) was 153 % of control, the T/C (dose: 600.0 mg/kg/injection, schedule: Q01DX001 (oral), vehicle: other) was 123 % of control and the T/C (dose: 600.0 mg/kg/injection, schedule: Q01DX001 (sc), vehicle: other) was 121 % of control.
With `CCOC(=O)C(C)(C)CN(C)CC(C)(C)C=O` the T/C (dose: 100.0 mg/kg/injection, schedule: Q04DX002 (ip), vehicle: saline) was 97 % of control, the T/C (dose: 200.0 mg/kg/injection, schedule: Q04DX002 (ip), vehicle: saline) was 108 % of control and the T/C (dose: 400.0 mg/kg/injection, schedule: Q04DX002 (ip), vehicle: saline) was 101 % of control.
`C1CCCCCC(C2CCCCCCCCCCC2)CCCCC1` was tested, and the T/C (dose: 25.0 mg/kg/injection, schedule: Q01DX009 (ip), vehicle: acetone) was 94 % of control, the T/C (dose: 25.0 mg/kg/injection, schedule: Q04DX003 (ip), vehicle: saline) was 94 % of control and the T/C (dose: 50.0 mg/kg/injection, schedule: Q01DX009 (ip), vehicle: acetone) was 93 % of control. The T/C (dose: 50.0 mg/kg/injection, schedule: Q04DX003 (ip), vehicle: saline) was 92 % of control, the T/C [3] was 92 % of control and the T/C (dose: 100.0 mg/kg/injection, schedule: Q01DX009 (ip), vehicle: acetone) was 98 % of control. For the same compound, the T/C (dose: 100.0 mg/kg/injection, schedule: Q04DX003 (ip), vehicle: saline) was 92 % of control, the T/C (dose: 150.0 mg/kg/injection, schedule: Q01DX009 (ip), vehicle: saline) was 90 % of control and the T/C (dose: 225.0 mg/kg/injection, schedule: Q01DX009 (ip), vehicle: saline) was 88 % of control. For the same compound, the T/C (dose: 335.0 mg/kg/injection, schedule: Q01DX009 (ip), vehicle: saline) was 93 % of control.
For `CN=C(NC)c1cccc(NC(=O)c2ccc(C(=O)Nc3cccc(C(=NC)NC)c3)cc2)c1`, the T/C (dose: 1.2 mg/kg/injection, schedule: Q01DX Z (ip), vehicle: carboxymethylcellulose (CMC)) was 93 % of control, the T/C (dose: 2.5 mg/kg/injection, schedule: Q01DX Z (ip), vehicle: carboxymethylcellulose (CMC)) was 96 % of control and the T/C (dose: 5.0 mg/kg/injection, schedule: Q01DX Z (ip), vehicle: carboxymethylcellulose (CMC)) was 93 % of control. The T/C (dose: 10.0 mg/kg/injection, schedule: Q01DX Z (ip), vehicle: carboxymethylcellulose (CMC)) was 100 % of control.
In the case of `FN1C(F)(F)C(F)(F)C(F)(F)C(F)(F)C1(F)F`, the T/C (dose: 100.0 mg/kg/injection, schedule: Q01DX001 (ip), vehicle: acetone) is reported as 100 % of control, the T/C (dose: 200.0 mg/kg/injection, schedule: Q01DX001 (ip), vehicle: acetone) is reported as 87 % of control and the T/C (dose: 400.0 mg/kg/injection, schedule: Q01DX001 (ip), vehicle: acetone) is reported as 92 % of control.
In the case of `CC12CCCCC1C=CC(=O)C2` (configuration not stated), the T/C [1] is reported as 89 % of control and the T/C [2] is reported as 94 % of control.
In the case of `COc1cc(Cc2c3cc4c(cc3cc[n+]2C)OCO4)c(Oc2cc(Cc3c4cc5c(cc4cc[n+]3C)OCO5)ccc2OC)cc1OC`, the T/C (dose: 3.12 mg/kg/injection, schedule: Q04DX003 (ip), vehicle: saline with Tween-80) is reported as 97 % of control, the T/C (dose: 6.25 mg/kg/injection, schedule: Q04DX003 (ip), vehicle: saline with Tween-80) is reported as 95 % of control and the T/C (dose: 12.5 mg/kg/injection, schedule: Q04DX003 (ip), vehicle: saline with Tween-80) is reported as 95 % of control.
For `OCC1OC(n2ccc3c(SCc4ccccc4)ncnc32)C(O)C1O` (configuration not stated), the T/C (dose: 25.0 mg/kg/injection, schedule: Q01DX001 (ip), vehicle: saline) was 110 % of control, the T/C (dose: 50.0 mg/kg/injection, schedule: Q01DX001 (ip), vehicle: saline) was 107 % of control and the T/C [3] was 98 % of control. For the same compound, the T/C (dose: 200.0 mg/kg/injection, schedule: Q01DX001 (ip), vehicle: saline) was 116 % of control.
